Tests used:
[1] = system: PopE-F10 M-833 resistant clone (PfSTART1 N330K); test: Growth inhibition assay (72 h, LDH activity); assay type: cell-based, Plasmodium falciparum
Procedure: The drug was then removed, and parasites were allowed to recover. Another cycle of drug treatment (3 μM M-833) was then resumed. The resistant lines were cloned out by limiting dilution (diluting the culture into a 96-well plate to achieve an average of ~0.3 parasites per well), prior to growth inhibition assays and genomic DNA (gDNA) extraction (DNeasy Blood and Tissue kit (Qiagen)[18].
Parasite growth assays with inhibitory compounds were performed as per[11] and are fully described in the Supplementary Information. […]
Growth inhibition assays. Synchronised ring-stage parasites (0.3-0.6% parasitemia, 2% haematocrit) were grown for 72 h in a serial-dilution of the compound under […]
and compound 4. Note that M-833 was first purchased from MolPort (MolPort -002-267-916) then made in-house at WEHI: the differences observed in EC50s across experiments are attributed to the different batches of M -833. For some experiments, 0, 0.25 or 2.5 mM of glucosamine (GlcN) was also added. Experiments were set up in technical duplicates or triplicates. Following a freeze -thaw cycle, lactate dehydrogenase (LDH) activity was assessed as an indicator of parasite growt h 5. 30 μL of parasite culture was incubated for 30 min in the dark with 75 μL Malstat mixture (0.1 M Tris pH 9.0, 20 g/L lactic acid, pH 7.5, 0.2% Triton-X100, 0.5 g/L acetylpyridine adenine dinucleotide (APAD, Sigma), 200 μg/mL nitroblue tetrazolium (NBT; Sigma), 1 μg/mL phenozine ethosulfate (PES; Sigma)). Absorbance was then measured at 650 nm, transformed using the formula below, plotted against the logarithm of the concentrations, and a non-linear regression (log(inhibitor) vs. response, variable slope) was calculated using GraphPad Prism to assess the half-inhibitory […]
Growth inhibition % = (1 − average(sample)− average(uRBC)) ∗ 100 […]
The DMSO samples were also used to assess growth of parasite in the presence of 0.25 and 2.5 mM GlcN (normalised by DMSO in 0 mM GlcN). […]

[2] = molecular target: T1, recombinant PfSTART1(WT) (I149-V394) (Plasmodium falciparum, UniProt Q8I298); test: Isothermal titration calorimetry; assay type: binding; details: for Differential Power DP_Y / ΔH NDH_Y: PfSTART(WT), ITC replicate data
T1 construct: START domain alone (I149-V394 from PF3D7_0104200); 8xHis tag (N); TEV protease cleavage site (N); made in house; host or cells: Sf21 insect cells (baculovirus)
T1 sequence (Q8I298 entry or part of it): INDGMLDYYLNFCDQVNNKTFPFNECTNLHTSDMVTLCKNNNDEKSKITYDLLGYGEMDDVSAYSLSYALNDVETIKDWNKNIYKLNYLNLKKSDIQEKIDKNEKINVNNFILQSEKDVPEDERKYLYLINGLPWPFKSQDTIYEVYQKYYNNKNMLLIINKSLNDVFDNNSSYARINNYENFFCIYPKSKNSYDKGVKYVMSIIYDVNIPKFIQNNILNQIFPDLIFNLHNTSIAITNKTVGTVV
Excerpt: Codon optimised (Spodoptera frugiperda, Sf) START domain alone (I149-V394 from PF3D7_0104200) was synthesised by Integrated DNA Technologies and cloned into a modified baculovirus transfer vector (pAcGP67-A) with a N-terminal GP67-signal sequence, 8xHis tag, and TEV protease cleavage site. Recombinant baculovirus was generated via the flashBACTM Baculovirus Expression System using Sf21 cells (Life Technologies), amplified to reach a third passage viral stock, and 1.5% used to infect Sf21 for protein expression. After incubation for three days at 28 °C, media containing secreted protein was harvested by centrifugation and supplemented with 50 mM Tris pH 7.5, 20 mM MgCl2, 100 mM NaCl, and 10-20 mM imidazole. The supplemented protein sample was purified by nickel affinity chromatography (HisTrap Excel 5 mL, Cytiva), and eluted with 20 mM Tris pH 7.5, 500 mM NaCl, 300-500 mM imidazole. Eluted fractions were further purified using size-exclusion chromatography (Superdex S75 16/600 or Superdex 10/300, Cytiva) with the column pre-equilibrated with 20 mM HEPES pH 7.5, 150 mM NaCl, and peak-containing fractions concentrated and stored at -80 °C until required. If required, prior to ITC, a second size-exclusion chromatography step was performed to remove soluble aggregates.
ITC experiments were performed on a MicroCal PEAQ-ITC calorimeter at 25 °C, with a stirring speed of 750 rpm and a reference power of 5 μcal/sec. 500 μM M-833 series inhibitor solutions were diluted to 10 μM in 50 mM NaPO4^-3 (pH 7.4), 150 mM NaCl with a final DMSO concentration of 2% (v/v) (cell sample). PfSTART1 protein was dialysed extensively against 50 mM NaPO4^-3 (pH 7.4), 150 mM NaCl, before diluting to 90 μM in the same buffer with 2% (v/v) DMSO (syringe sample). The first injection was 0.4 μL over a 0.8 s duration, and the remaining 19 injections were 2 μL of 4 s duration, with 150 s injection spacing. Data were collected and analysed using the PEAQ-ITC software (MicroCal) and fit by a single site binding model. A fitted offset (constant control heat) was also applied to the integrated heat.

## Cc1cc(Cl)c(S(=O)(=O)N2CCCC2)cc1OCC(=O)NC1CCCCC1 [M-833]
[1]; Plasmodium falciparum, Pop E-F10 replicate 1, M-833 10 uM
  inhibition at 10 µM: 32.5%
[1]; Pop E-F10 replicate 1, M-833 0.0390625 uM
  Normalised to DMSO: 103
[1]; Pop E-F10 replicate 1, M-833 0.078125 uM
  Normalised to DMSO: 100.769
[1]; Pop E-F10 replicate 1, M-833 0.3125 uM
  Normalised to DMSO: 101.424
[1]; Pop E-F10 replicate 1, M-833 0.625 uM
  Normalised to DMSO: 100.047
[1]; Pop E-F10 replicate 1, M-833 1.25 uM
  Normalised to DMSO: 98.7091
[1]; Pop E-F10 replicate 1, M-833 2.5 uM
  Normalised to DMSO: 96.4594
[1]; Pop E-F10 replicate 1, M-833 5 uM
  Normalised to DMSO: 86.4832
[1]; Pop E-F10 replicate 1, M-833 10 uM
  Normalised to DMSO: 67.4893
[1]; PopE-F10, 3.04832 nM, biological replicate 1
  (av-uRBC) / (DMSO-uRBC) x100: 111.434
[1]; PopE-F10, 3.04832 nM, biological replicate 2
  (av-uRBC) / (DMSO-uRBC) x100: 114.392
[1]; PopE-F10, 3.04832 nM, biological replicate 3
  (av-uRBC) / (DMSO-uRBC) x100: 116.409
[1]; PopE-F10, 9.14495 nM, biological replicate 1
  (av-uRBC) / (DMSO-uRBC) x100: 115.6
[1]; PopE-F10, 9.14495 nM, biological replicate 2
  (av-uRBC) / (DMSO-uRBC) x100: 114.392
[1]; PopE-F10, 9.14495 nM, biological replicate 3
  (av-uRBC) / (DMSO-uRBC) x100: 132.26
[1]; PopE-F10, 27.4348 nM, biological replicate 1
  (av-uRBC) / (DMSO-uRBC) x100: 114.804
[1]; PopE-F10, 27.4348 nM, biological replicate 2
  (av-uRBC) / (DMSO-uRBC) x100: 115.461
[1]; PopE-F10, 27.4348 nM, biological replicate 3
  (av-uRBC) / (DMSO-uRBC) x100: 121.608
[1]; PopE-F10, 82.3045 nM, biological replicate 1
  (av-uRBC) / (DMSO-uRBC) x100: 112.716
[1]; PopE-F10, 82.3045 nM, biological replicate 2
  (av-uRBC) / (DMSO-uRBC) x100: 116.595
[1]; PopE-F10, 82.3045 nM, biological replicate 3
  (av-uRBC) / (DMSO-uRBC) x100: 121.195
[1]; PopE-F10, 246.914 nM, biological replicate 1
  (av-uRBC) / (DMSO-uRBC) x100: 110.71
[1]; PopE-F10, 246.914 nM, biological replicate 2
  (av-uRBC) / (DMSO-uRBC) x100: 117.042
[1]; PopE-F10, 246.914 nM, biological replicate 3
  (av-uRBC) / (DMSO-uRBC) x100: 120.187
[1]; PopE-F10, 740.741 nM, biological replicate 1
  (av-uRBC) / (DMSO-uRBC) x100: 108.694
[1]; PopE-F10, 740.741 nM, biological replicate 2
  (av-uRBC) / (DMSO-uRBC) x100: 116.419
[1]; PopE-F10, 740.741 nM, biological replicate 3
  (av-uRBC) / (DMSO-uRBC) x100: 115.329
[1]; PopE-F10, 2222.22 nM, biological replicate 1
  (av-uRBC) / (DMSO-uRBC) x100: 107.392
[1]; PopE-F10, 2222.22 nM, biological replicate 2
  (av-uRBC) / (DMSO-uRBC) x100: 111.175
[1]; PopE-F10, 2222.22 nM, biological replicate 3
  (av-uRBC) / (DMSO-uRBC) x100: 110.489
[1]; PopE-F10, 6666.67 nM, biological replicate 1
  (av-uRBC) / (DMSO-uRBC) x100: 97.5292
[1]; PopE-F10, 6666.67 nM, biological replicate 2
  (av-uRBC) / (DMSO-uRBC) x100: 97.5177
[1]; PopE-F10, 6666.67 nM, biological replicate 3
  (av-uRBC) / (DMSO-uRBC) x100: 73.4437
[1]; PopE-F10, 20000 nM, biological replicate 1
  (av-uRBC) / (DMSO-uRBC) x100: 52.2279
[1]; PopE-F10, 20000 nM, biological replicate 2
  (av-uRBC) / (DMSO-uRBC) x100: 44.7285
[1]; PopE-F10, 20000 nM, biological replicate 3
  (av-uRBC) / (DMSO-uRBC) x100: 18.154
[1]; Supplementary Table 1, EC50 on PopE-F10 vs 3D7
  Fold change compared to 3D7: > 128 fold
[1]; Supplementary Table 1, PopE-F10 (N330K), 72 h
  EC50: > 10 µM
[2]; ITC, 25 °C, 90 µM PfSTART1 titrated into 10 µM compound, n = 2, ± SD
  Kd: 42 ± 12 nM
[2]; ITC, 25 °C, n = 2, ± SD
  ΔH: -7.6 ± 0.2 kcal/mol
  −TΔS: -2.5 ± 0.4 kcal/mol
[2]; DP_X 0.083333
  Differential Power DP_Y: -0.001604
[2]; DP_X 0.1
  Differential Power DP_Y: -0.001099
[2]; NDH_X 0.104703
  ΔH NDH_Y: -8.4
[2]; NDH_X 0.192876
  ΔH NDH_Y: -6.335

Reference: PMC11189555, “Aryl amino acetamides prevent Plasmodium falciparum ring development via targeting the lipid-transfer protein PfSTART1” (Nature Communications, 2024)
